Values quoted from earlier work, collected in patent US20100035998A1, “COMBINATION S-NITROSOTHIOL PHARMACEUTICAL PRODUCTS FOR RESTORING NORMAL BREATHING RHYTHMS” (Galleon Pharmaceutical, Inc, priority 2005, published 2010).

Columns and labels:
[1] = system: patients that had predominantly obstructive sleep apnea; conditions: low doses; patients with predominantly obstructive sleep apnea
[2] = system: central apnea patients; conditions: low doses
[3] = system: upper airway tone; conditions: animals

| Compound | reduction in apnea episodes [1] | apnea episodes after one month of treatment ([2]; 25.5 pre-treatment) | decrease in apnea episodes ([2]; pre-treatment vs after one month of treatment) [%] | effect on tone of the upper airway [3] |
| --- | --- | --- | --- | --- |
| CC(=O)Nc1nnc(S(N)(=O)=O)s1 [acetazolamide] | about 25% | 6.8 | 73 | – |
| CN1CCN2c3ncccc3Cc3ccccc3C2C1 (stereo not shown) [Mirtazapine] | – | – | – | help restore the tone of the upper airway to prevent collapse |
